Source: the SangsterLogP compilation

What was measured:
[1] = method code SF, from DOI: 10.1016/0006-2952(79)90295-8, PMID: 36087
[2] = method code SF-AS, from DOI: 10.1016/s0969-8051(99)00063-3, PMID: 10628565; conditions: pH 7.0
[3] = method code SF-AS, from DOI: 10.1016/j.bmc.2004.10.037, PMID: 15653345
[4] = method code SF-AS, from DOI: 10.1021/jm00040a014, PMID: 8035429; conditions: pH 7.4
[5] = not given; remark: listed apart in the source
[6] = method code SF, from Yoshimoto, M. (1982). Quantitative structure-activity relationships and structure patterns of drugs. SankyoÌ„ KenkyuÌ„jo nenpoÌ„ (Annual report of Sankyo Research Laboratories), 34, 1-38.
[7] = method code SF-HPLC, from DOI: 10.1016/0378-5173(90)90303-l; conditions: pH 7.4
[8] = not given; remark: listed apart in the source
[9] = method code SF, from PMID: 25193232; conditions: pH 7.4
[10] = method code SF, from DOI: 10.1016/0168-3659(92)90078-6; conditions: pH 7.0
[11] = method code SF-RC, from DOI: 10.1002/ps.2780410303
[12] = method code SF, from PMID: 7274411
[13] = method code SF-HPLC, from DOI: 10.1080/01483919108049396; conditions: pH 7.0
[14] = method code SF-HPLC, from DOI: 10.1023/a:1011018730459, PMID: 11451042
[15] = method code SF, from Wang, L.; Li, H.; Wang, X.; Zhang, Z. (1993). Determination of aqueous solubilities and partition coefficients of substitutive ethylketone congeners by generator column. Huanjing Huaxue, 12(2)151-154.
[16] = method code SF, from DOI: 10.1007/bf01610114, PMID: 6839039
[17] = method code SF-HPLC, from DOI: 10.1039/a702469j; conditions: pH 7.0
[18] = not given; remark: listed apart in the source
[19] = not given; remark: listed apart in the source
[20] = not given; remark: listed apart in the source
[21] = method code SF-HPLC, from DOI: 10.1016/0378-5173(89)90028-8
[22] = method code SF-HPLC, from DOI: 10.1023/a:1015902024664, PMID: 2235895; conditions: pH 7.0
[23] = method code SF-RC, from DOI: 10.1021/jf60186a044, PMID: 4688915
[24] = not given; remark: listed apart in the source
[25] = method code SF-AS, from DOI: 10.1135/cccc19831077; conditions: pH 3.5
[26] = method code SF-AS, from DOI: 10.1016/0223-5234(94)90063-9; conditions: pH 2.0

SMILES: CNC(=O)COc1ccc(OCC(O)CNC(C)C)cc1 (stereo not drawn)
- logP [1]: 0.56

SMILES: O=c1[nH]c(Nc2ccccc2)nc2c1ncn2CCO
- logD [2]: 0.83

SMILES: CC(=O)Nc1ccc(OCC(O)CNCC(O)COc2ccccc2)cc1 (stereo not drawn)
- logP: 1.39

SMILES: OCCN1CCN(Cc2ccc(O)c3ncccc23)CC1
- logP [3]: 0.54

SMILES: CCOP(=O)(OCC)C(=O)OCC1OC(n2ccc(NC(C)=O)nc2=O)CS1 (stereo not drawn)
- logD [4]: 0.65

SMILES: Cc1cc(Cl)c(Cc2cc(Cl)ccc2Cl)cc1Cl
- logP [5]: 6.51

SMILES: CCC(C)SCC(=O)NC1(OC)C(=O)N2C(C(=O)O)=C(COC(N)=O)CSC21 (stereo not drawn)
- logP [6]: -1.38

SMILES: CCC(=O)OCOC(=O)c1cc(S(N)(=O)=O)c(Cl)cc1NCc1ccco1
- logD [7]: 2.9

SMILES: Clc1ccc(C(Cn2ccnc2)OCc2ccsc2Cl)c(Cl)c1 (stereo not drawn)
- logP [8]: 4.7

SMILES: OC(CNCC(O)COc1ccccc1)COc1ccccc1 (stereo not drawn)
- logP: 2.52

SMILES: O=C(NOCCO)c1ccn2cncc2c1Nc1ccc(I)cc1F
- logD [9]: 2.05

SMILES: CC(C)C(=O)OCC1CCC(n2cnc3c(O)ncnc32)O1 (stereo not drawn)
- logD [10]: 0.02

SMILES: CC(C)(C)NC[C@H](O)COc1nsnc1N1CCOCC1
- logP: 1.98

SMILES: OC(Cn1ccnc1)(Cn1cncn1)c1ccc(Cl)cc1Cl (stereo not drawn)
- logP [8]: 1.6

SMILES: CCCCc1cnc(C2=NC(C)(C(C)C)C(=O)N2)c(C(=O)O)c1 (stereo not drawn)
- logD ([11]; pH 2.8): 1.99

SMILES: CCCC(C)C(=O)OCC1CCC(n2cnc3c(O)ncnc32)O1 (stereo not drawn)
- logD [10]: 1

SMILES: O=C1CN=C(c2ccccc2)c2cc([N+](=O)[O-])ccc2N1
- logD ([12]; pH 8.0): 2.06

SMILES: O=C(Nc1ccn(C2OC(CO)C(O)C2O)c(=O)n1)c1ccccc1 (stereo not drawn)
- logD [13]: 0.3

SMILES: COC1(NC(=O)CSc2nc3c[nH]cnc-3n2)C(=O)N2C(C(=O)O)=C(COC(N)=O)CSC21 (stereo not drawn)
- logP [6]: -1.72

SMILES: OC[C@H]1O[C@@H](n2cnc3c(NC4CCCC4)ncnc32)[C@H](O)[C@@H]1O
- logP [14]: 1.21

SMILES: CCOP(=O)(OCC)C(=O)CCCCNc1ccn(C2CSC(CO)O2)c(=O)n1 (stereo not drawn)
- logD [4]: 1.21

SMILES: CCCCC(=O)OCC1OC(n2cnc3c(NC4CCCC4)ncnc32)C(O)C1O (stereo not drawn)
- logP [14]: 2.79

SMILES: O=C(OCC1OC(n2cnc3c(NC4CCCC4)ncnc32)C(O)C1O)C1CCCCC1 (stereo not drawn)
- logP [14]: 2.95

SMILES: O=C(CSc1ccccc1)c1ccc(Cl)cc1
- logP [15]: 2.69

SMILES: CC(C)OC(=O)c1ccccc1C(=O)OC(C)C
- logP [16]: 2.83

SMILES: CCOP(=O)(OCC)C(C)(C)[N+]([O-])=Cc1ccccn1
- logD [17]: 0.68

SMILES: CCCCCCC(O)(Cn1ccnc1)c1ccc(Cl)cc1Cl (stereo not drawn)
- logP [8]: 5.2

SMILES: O=C(NOC[C@H](O)CO)c1ncc2cncn2c1Nc1ccc(I)cc1F
- logD [9]: 1.1

SMILES: Cn1c(=O)nc(-c2ccccc2)c2ccccc21
- logP [18]: 1.79

SMILES: Cc1ccc(SCC(=O)c2ccccc2)cc1
- logP [15]: 2.46

SMILES: COc1cccc(Nc2ccccc2C(=O)O)c1
- logP [19]: 4.31

SMILES: CC(C)C1(C)N=C(c2ncc(Br)cc2C(=O)O)NC1=O (stereo not drawn)
- logD ([11]; pH 1.8): 1.19

SMILES: CC(=O)NC(CCC(=O)O)C(=O)Nc1nnc(-c2cccc(Cl)c2Cl)c(N)n1 (stereo not drawn)
- logP [20]: 1.6

SMILES: O=c1[nH]c(Nc2ccccc2)nc2c1ncn2C1CC(O)C(CO)O1 (stereo not drawn)
- logD [2]: 0.4

SMILES: CC(=O)NCC(=O)Nc1nnc(-c2cccc(Cl)c2Cl)c(N)n1
- logP [20]: 1.1

SMILES: CC(O)CONC(=O)c1ncc2cncn2c1Nc1ccc(I)cc1F (stereo not drawn)
- logD [9]: 2.2

SMILES: CCC(=O)OCOC(=O)c1cn(CC)c2nc(C)ccc2c1=O
- logP [21]: 1.7

SMILES: CCOP(=O)(OCC)C(C)(C)[N+]([O-])=Cc1ccc([N+](=O)[O-])cc1
- logD [17]: 1.43

SMILES: CN1C(=O)CN=C(c2ccccc2F)c2cc([N+](=O)[O-])ccc21
- logD ([12]; pH 4.0): 2.05

SMILES: O=C(O)c1ccccc1Nc1cccc(O)c1
- logP [19]: 3.43

SMILES: CCCCCCCCCC(=O)OC[C@H]1O[C@@H](n2cc(C)c(=O)[nH]c2=O)C[C@@H]1N=[N+]=[N-]
- logD [22]: 4.45

SMILES: CCOP(=O)(OCC)C(C)(C)[N+]([O-])=Cc1ccc(Cl)cc1
- logD [17]: 2.44

SMILES: CSCCC(NC(C)=O)C(=O)Nc1nnc(-c2cccc(Cl)c2Cl)c(N)n1 (stereo not drawn)
- logP [20]: 1.92

SMILES: CCOP(=O)(CC(=O)OCC1OC(n2ccc(N)nc2=O)CS1)OCC (stereo not drawn)
- logD [4]: 0.48

SMILES: CCOc1ccc(C(c2ccc(C)cc2)C(Cl)(Cl)Cl)cc1 (stereo not drawn)
- logP [23]: 3.96

SMILES: OC1(c2cccc(I)c2)c2ccccc2C2=NCCN21 (stereo not drawn)
- logP [24]: 2.3

SMILES: O=C(CSc1ccccc1)c1ccccc1
- logP [15]: 1.88

SMILES: CCN(CC)C(=O)COC(=O)c1cc(S(N)(=O)=O)c(Cl)cc1NCc1ccco1
- logD [7]: 2.45

SMILES: CC(C)COC(=O)c1ccccc1C(=O)OCC(C)C
- logP [16]: 4.11

SMILES: Cc1cc(Cl)c(Cl)cc1Cc1ccc(Cl)cc1Cl
- logP [5]: 6.43

SMILES: O=C(Nc1ncnc2c1ncn2[C@H]1C[C@H](O)[C@@H](CO)O1)c1ccccc1
- logD [13]: 0.22

SMILES: OC1(c2cccc(Br)c2)c2ccccc2C2=NCCN21 (stereo not drawn)
- logP [24]: 1.97

SMILES: CSc1ccc(C(c2ccc(SC)cc2)C(Cl)(Cl)Cl)cc1
- logP [23]: 3.85

SMILES: O=C(O)Cc1ccc(OCc2ccccc2)c(Cl)c1
- logD [25]: 3.43

SMILES: CCCC(=O)OC[C@H]1O[C@@H](n2cc(C)c(=O)[nH]c2=O)C[C@@H]1N=[N+]=[N-]
- logD [22]: 1.5

SMILES: CCn1cc(C(=O)OCOC(=O)C(C)C)c(=O)c2ccc(C)nc21
- logP [21]: 2.17

SMILES: COc1ccc(C(c2ccc(SC)cc2)C(Cl)(Cl)Cl)cc1 (stereo not drawn)
- logP [23]: 2.9

SMILES: CCOCCOCCOc1ccc2c(c1)c(-c1ccccc1)nc(=O)n2C
- logP [18]: 1.84

SMILES: COC1(NC(=O)CSc2nncs2)C(=O)N2C(C(=O)O)=C(COC(N)=O)CSC21 (stereo not drawn)
- logP [6]: -1.95

SMILES: CNC(=O)COc1cccc(OCC(O)CNC(C)C)c1 (stereo not drawn)
- logP [1]: 0.35

SMILES: C#CCN(C)Cc1ccc(O)c2ncccc12
- logP [3]: 1.92

SMILES: O=C(O)Cc1ccc(OCCCc2ccccc2)c(Cl)c1
- logD [25]: 3.9

SMILES: CC(C)(C)C(=O)OCC1CCC(n2cnc3c(O)ncnc32)O1 (stereo not drawn)
- logD [10]: 0.6

SMILES: Cc1cc(CC(=O)O)ccc1OCc1ccccc1
- logD [25]: 3.37

SMILES: CCn1cc(C(=O)OCOC(C)=O)c(=O)c2ccc(C)nc21
- logP [21]: 1.21

SMILES: CC(=O)c1cccc(Nc2ccccc2C(=O)O)c1
- logP [19]: 4.07

SMILES: COCCn1cnc2c(=O)[nH]c(Nc3ccccc3)nc21
- logD [2]: 1.2

SMILES: Cn1c(=O)nc(-c2ccccc2)c2cc(O)ccc21
- logP [18]: 1.72

SMILES: OC1(c2cccc(Cl)c2)c2ccccc2C2=NCCN21 (stereo not drawn)
- logP [24]: 1.85

SMILES: CCCCCOC(=O)c1ccccc1C(=O)OCCCCC
- logP [16]: 4.85

SMILES: CCOC(=O)c1cc(S(N)(=O)=O)c(Cl)cc1NCc1ccco1
- logD [7]: 2.67

SMILES: CC(=O)NCc1cccc(OCC(O)CNC(C)C)c1 (stereo not drawn)
- logP [1]: 0.34

SMILES: CCCCCC(=O)OC[C@H]1O[C@@H](n2cc(C)c(=O)[nH]c2=O)C[C@@H]1N=[N+]=[N-]
- logD [22]: 2.45

SMILES: CCOC(=O)C(CS)NCc1ccc(O)c2ncccc12 (stereo not drawn)
- logP [3]: 0.21

SMILES: C/N=C1/CN(O)C(c2ccccc2)=c2cc(Cl)ccc2=N1
- logD ([12]; pH 8.0): 2.12

SMILES: Cc1cc(Cc2ccc(Cl)c(Cl)c2)c(Cl)cc1Cl
- logP [5]: 6.51

SMILES: COCc1cnc(C2=NC(C)(C(C)C)C(=O)N2)c(C(=O)O)c1 (stereo not drawn)
- logD ([11]; pH 2.5): 0.47

SMILES: Cn1c(CC(=O)O)cnc1C(=O)c1ccc([N+](=O)[O-])cc1
- logD [26]: 0.86
